# According to patent US9656990B2, “Cathepsin cysteine protease inhibitors” (Merck Sharp & Dohme Corp., priority 2014, dated 2017):
# Key:
# human cathepsin K = human cathepsin K (UniProt P43236, Y175D/V274L, species not given); test: Cathepsin K Assay; assay type: biochemical; details: IP from dose response curve; Z-Leu-Arg-AMC substrate, pH 5.5; read-out: hrbCat K (IP (nM))
# human cathepsin F = biological target: T1, human cathepsin F (Homo sapiens, UniProt Q9UBX1); test: Cathepsin F Assay; assay type: biochemical; details: IP from dose response curve; Z-Phe-Arg-AMC substrate, pH 5.5; read-out: hCat F (IP (nM))
# T1 sequence (Q9UBX1 271-484): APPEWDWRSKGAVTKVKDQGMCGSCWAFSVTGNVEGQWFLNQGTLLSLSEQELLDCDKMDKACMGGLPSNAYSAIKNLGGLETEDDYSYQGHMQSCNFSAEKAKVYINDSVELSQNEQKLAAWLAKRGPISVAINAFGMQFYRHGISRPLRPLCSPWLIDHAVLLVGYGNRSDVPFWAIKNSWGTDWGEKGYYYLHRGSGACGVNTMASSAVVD
# Outline: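 Human cathepsin F (10 nM) preincubated 15 min at room temperature with compounds in 50 mM MES pH 5.5, 2.5 mM EDTA, 2.5 mM DTT, 10% DMSO. Z-Phe-Arg-AMC (8 μM) added; AMC release read by fluorescence (Ex 360/Em 460 nm) over 20 min, inhibition fit to dose-response model.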
Structure (SMILES),IC50 (human cathepsin K) [nM],IC50 (human cathepsin F) [nM]
"N#CC1(NC(=O)[C@@H]2CCCC[C@H]2c2nn(-c3ccncc3)cc2-c2ccc(N3CCS(=O)(=O)CC3)cc2)CC1 [Example 163, (1R,2R)-N-(1-cyanocyclopropyl)-2-(4-(4-(1,1-dioxidothiomorpholino)phen-yl)-1-(pyridin-4-yl)-1H-pyrazol-3-yl)cyclohexanecarboxamide]",0.32,237
"CC(C)[C@@H](C#N)NC(=O)[C@@H]1CCCC[C@H]1c1nn(-c2ccc(F)cc2)c(CO)c1-c1ccc(N2CCS(=O)(=O)CC2)cc1 [Example 65, (1R,2R)-N-((S)-1-cyano-2-methylpropyl)-2-(4-(4-(1,1-dioxidothiomorpholino)phen-yl)-1-(4-fluorophenyl)-5-(hydroxymethyl)-1H-pyrazol-3-yl)cyclohexanecarboxamide]",11,868
"N#CC1(NC(=O)[C@@H]2CCCC[C@H]2c2nn(-c3ccc4[nH]ccc4c3)cc2-c2ccc(N3CCS(=O)(=O)CC3)cc2)CC1 [Example 137, (1R,2R)-N-(1-cyanocyclopropyl)-2-(4-(4-(1,1-dioxidothiomorpholino)phen-yl)-1-(1H-indol-5-yl)-1H-pyrazol-3-yl)cyclohexanecarboxamide]",8.43,2830
"N#CC1(NC(=O)[C@@H]2CCCC[C@H]2c2nn(-c3ncc(F)cc3Cl)cc2-c2ccc(N3CCS(=O)(=O)CC3)cc2)CC1 [Example 147, (1R,2R)-2-(1-(3-chloro-5-fluoropyridin-2-yl)-4-(4-(1,1-dioxidothiomorpholino)phen-yl)-1H-pyrazol-3-yl)-N-(1-cyanocyclopropyl)cyclohex-anecarboxamide]",3.26,1190
"C[C@@H](C#N)NC(=O)[C@@H]1CC(F)(F)CC[C@H]1c1nn(-c2ccc(F)cn2)c(CO)c1-c1ccc(N2CCS(=O)(=O)CC2)cc1 [Example 67, (1R,2R)-N-((S)-1-cyanoethyl)-2-(4-(4-(1,1-dioxidothiomorpholino)phen-yl)-1-(5-fluoropyridin-2-yl)-5-(hydroxymethyl)-1H-pyrazol-3-yl)-5,5-difluorocyclohexanecarbox-amide]",1.24,146
"N#CC1(NC(=O)[C@@H]2CCCC[C@H]2c2nn(-c3cc(F)c(F)c(F)c3)cc2-c2ccc(N3CCS(=O)(=O)CC3)cc2)CC1 [Example 128, (1R,2R)-N-(1-cyanocyclopropyl)-2-(4-(4-(1,1-dioxidothiomorpholino)phen-yl)-1-(3,4,5-trifluorophenyl)-1H-pyrazol-3-yl)cyclohexanecarboxamide]",0.79,319
"CC(C)N=S1(=O)CCN(c2ccc(-c3cn(-c4ccc(F)cc4)nc3[C@@H]3CCCC[C@H]3C(=O)NC3(C#N)CC3)cc2)CC1 [Example 140, (1R,2R)-N-(1-cyanocyclopropyl)-2-(1-(4-fluorophenyl)-4-(4-(1-(isopropylimino)-1-oxidothiomorpholino)phenyl)-1H-pyrazol-3-yl)cyclohexanecarboxamide]",1.29,782
"N#CC1(NC(=O)[C@@H]2CCCC[C@H]2c2nn(-c3cc(F)ccc3F)cc2-c2ccc(N3CCS(=O)(=O)CC3)cc2)CC1 [Example 114, (1R,2R)-N-(1-cyanocyclopropyl)-2-(1-(2,5-difluorophenyl)-4-(4-(1,1-dioxidothiomorpholino)phen-yl)-1H-pyrazol-3-yl)cyclohexanecarboxamide]",1.06,633
"Cc1c(-c2ccc(N3CCS(=N)(=O)CC3)cc2)c([C@@H]2CCCC[C@H]2C(=O)N[C@@H](C)C#N)nn1-c1ncccc1F [Example 51, (1R,2R)-N-((S)-1-cyanoethyl)-2-(1-(3-fluoropyridin-2-yl)-4-(4-(1-imino-1-oxidothiomorpholino)phenyl)-5-methyl-1H-pyrazol-3-yl)cyclohexanecarboxamide]",7.41,3870
"N#CC1(NC(=O)[C@@H]2C[C@@H](F)CC[C@H]2c2nn(-c3ccc(F)cn3)cc2-c2ccc(N3CCS(=N)(=O)CC3)cc2)CC1 [Example 59, (1R,2R,5S)-N-(1-cyanocyclopropyl)-5-fluoro-2-(1-(5-fluoropyridin-2-yl)-4-(4-(1-imino-1-oxidothiomorpholino)phenyl)-1H-pyrazol-3-yl)cyclohexanecarboxamide]",1.29,2460
"N#CC1(NC(=O)[C@@H]2CC(F)(F)CC[C@H]2c2nn(-c3ccc(F)cc3)cc2-c2ccc(N3CCS(=O)(=O)CC3)cc2)CC1 [Example 83, (1R,2R)-N-(1-cyanocyclopropyl)-2-(4-(4-(1,1-dioxidothiomorpholino)phen-yl)-1-(4-fluorophenyl)-1H-pyrazol-3-yl)-5,5-difluorocyclohexanecarbox-amide]",0.47,28
"N#Cc1ccc(-n2cc(-c3ccc(N4CCS(=O)(=O)CC4)cc3)c([C@@H]3CCCC[C@H]3C(=O)NC3(C#N)CC3)n2)c(Cl)c1 [Example 104, (1R,2R)-2-(1-(2-chloro-4-cyanophenyl)-4-(4-(1,1-dioxidothiomorpholino)phen-yl)-1H-pyrazol-3-yl)-N-(1-cyanocyclopropyl)cyclohex-anecarboxamide]",2.02,411
"CC(=O)N1CC(c2ccc(-c3cn(-c4ccc(F)cc4)nc3[C@@H]3CCCC[C@H]3C(=O)NC3(C#N)CC3)cc2)C1 [Example 134, (1R,2R)-2-(4-(4-(1-acetylazetidin-3-yl)phenyl)-1-(4-fluorophenyl)-1H-pyrazol-3-yl)-N-(1-cyanocyclopropyl)cyclohex-anecarboxamide]",1.57,210
"Cc1c(-c2ccc(N3CCS(=N)(=O)CC3)cc2)c([C@@H]2CCCC[C@H]2C(=O)NC2(C#N)CC2)nn1-c1ncccc1F [Example 50, (1R,2R)-N-(1-cyanocyclopropyl)-2-(1-(3-fluoropyridin-2-yl)-4-(4-(1-imino-1-oxidothiomorpholino)phenyl)-5-methyl-1H-pyrazol-3-yl)cyclohexanecarboxamide]",14,7790
"N#CC1(NC(=O)[C@@H]2CCCC[C@H]2c2nn(-c3ccc(C(F)(F)F)cc3)cc2-c2ccc(N3CCS(=O)(=O)CC3)cc2)CC1 [Example 121, (1R,2R)-N-(1-cyanocyclopropyl)-2-(4-(4-(1,1-dioxidothiomorpholino)phen-yl)-1-(4-(trifluoromethyl)phenyl)-1H-pyrazol-3-yl)cyclohexanecarboxamide]",3.08,649
"C[C@@H](C#N)NC(=O)[C@@H]1CCCC[C@H]1c1nn(-c2ccc(F)cc2)c(CO)c1-c1ccc(N2CCS(=O)(=O)CC2)cc1 [Example 64, (1R,2R)-N-((S)-1-cyanoethyl)-2-(4-(4-(1,1-dioxidothiomorpholino)phen-yl)-1-(4-fluorophenyl)-5-(hydroxymethyl)-1H-pyrazol-3-yl)cyclohexanecarboxamide]",4.61,565
"CC1(C)CCC(C(=O)NC2(C#N)CC2)C(c2nn(-c3ccc(F)cc3)cc2-c2ccc(N3CCS(=O)(=O)CC3)cc2)C1 [Example 117, (1S,2S, or 1R,2R)-N-(1-cyanocyclopropyl)-2-(4-(4-(1,1-dioxidothiomorpholino)phen-yl)-1-(4-fluorophenyl)-1H-pyrazol-3-yl)-4,4-dimethylcyclohexanecarbox-amide]",13.9,1570
